This note sets out measurements from paper PMC8766756, “Insights on Cancer Cell Inhibition, Subcellular Activities, and Kinase Profile of Phenylacetamides Pending 1H-Imidazol-5-One Variants” (Frontiers in Pharmacology, 2022).

As a reminder, the IC50 is the concentration that inhibits the measured activity by half. Higher therefore signals weaker potency in that assay. The solubility is the concentration that dissolves in the medium under given conditions.

The target in data set [1] is T1, human cytochrome P450 3A4 (Homo sapiens, UniProt P08684).
T1 construct: purchased Fisher Scientific, Waltham, MA; host or cells: insect cells (Supersomes)
Description: Inhibition assay of human CYP450 enzymes. In kind it is in vitro ADME. Particulars: testosterone substrate. The method, then: (§1) KIM-161 was assessed for its ability to inhibit the three major human CYP450 enzymes: 3A4, 2D6, and 2C9. The assays were run in triplicate. The expressed enzymes in insect Supersomes (Fisher Scientific, Waltham, MA) were used to minimize nonspecific binding and membrane partitioning issues ([McMasters et al., 2007]). The 3A4 assay uses testosterone as a substrate, and the analysis was performed by LC/MS/MS on a Waters Xevo TQ instrument as described above, using positive electrospray ionization. The assay acceptance criterion was 20% for all standards and 25% for the LLOQ. The 2D6 and 2C9 assays use fluorescent substrates (3-[2-(N,N-diethylamino)ethyl]-7-methoxy-4-methylcoumarin for 2D6; 7-methoxy-4-(trifluromethyl)coumarin for 2C9) and were analyzed on an Envision plate reader. GraphPad® Prism v.5.04 was used for nonlinear fitting of data to generate IC50 values.

In data set [2] the target is T2, human cytochrome P450 2C9 (Homo sapiens, UniProt P11712).
T2 construct: purchased Fisher Scientific, Waltham, MA; host or cells: insect cells (Supersomes)
Description: Inhibition assay of human CYP450 enzymes. In kind it is in vitro ADME. Particulars: fluorescent substrate. The method, then:
as §1

Data set [3] concerns the target T3, human cytochrome P450 2D6 (Homo sapiens, UniProt P10635).
T3 construct: purchased Fisher Scientific, Waltham, MA; host or cells: insect cells (Supersomes)
Description: Inhibition assay of human CYP450 enzymes. Format: in vitro ADME. Particulars: fluorescent substrate. How it is done:
as §1

Another data set deals with bovine brain tubulin. Description: Tubulin polymerization assay (cell-free). Particulars: 10 and 30 µM, compared with KX2-391 (10 µM). Format: biochemical. How it is done: KX2-391 (KX-01), the prototype of KIM-161, is a known powerful tubulin polymerization inhibitor. Consequently, we investigated its effect on tubulin polymerization using a cell-free assay that also included paclitaxel as another positive reference that affects tubulin function through stabilization of tubulin polymers (Figure 9).
FIGURE 9 Tubulin polymerization assay for KIM-161 at 10 and 30 µM compared to paclitaxel (10 µM) and KX2-391 (10 µM) as positive controls. The negative control (vehicle) contained DMSO (1% v/v). The effect on the tubulin assembly was monitored turbidometrically at 340 nm every 30 s for 60 min at 37°C. Fold inhibition of tubulin polymerization was calculated using the V max value for each reaction. The results represent the mean for three separate experiments.
The assembly of purified bovine tubulin was monitored using a kit BK006 purchased from Cytoskeleton Inc. (Denver, CO, USA). The assay was carried out in accordance with the manufacturer's instructions in the tubulin polymerization assay kit manual using the standard assay conditions. The values reported represent the average values from two independent assays. […] Therefore, tubulin assembly was monitored turbidimetrically at 340 nm at 37°C in a Spectramax 340 PC spectrophotometer (Molecular Devices, Sunnyvale, CA, USA). The absorbance was measured at 30-s intervals for 60 min.

The nature of data set [4]: Binding to mouse plasma proteins (equilibrium dialysis). In kind it is in vitro ADME. The note with it: pH 7.4, CD-1 mouse plasma, equilibrium dialysis 22 h, read-out: Mouse plasma protein binding (% free at 37°C). The method, then:
The equilibrium dialysis method for determining plasma protein binding was performed as previously described using 96-well dialyzer plates with a molecular weight cutoff of 5K (Harvard Apparatus, Holliston, MA) and a dual-plate rotator set to maximum speed (Harvard Apparatus, Holliston, MA) located in a 37°C incubator with a 10% CO2 atmospheric environment. The assays were run in triplicate. KIM-161 was added to CD-1 mouse plasma (Innovative Research, Novi, MI, sodium heparin added as anticoagulant; pH adjusted to 7.4 with 2N HCl on the day of use) in DMSO (final DMSO concentration 0.4%) to give a 10 µM final concentration. The drug/plasma mixture and buffer (Dulbecco's PBS 1X without calcium and magnesium, Mediatech, Inc., Herndon, VA) were placed in their respective sides; the wells were capped; and the plate was placed in the rotator and allowed to dialyze for 22 h. Following dialysis, aliquots of the buffer and plasma mixture were removed and mixed with aliquots of the opposite matrix in 96-well deep plates. The concentrations of the analytes from each side of the dialysis plate were determined by LC/MS/MS on a Waters Xevo TQ instrument as described above using positive electrospray ionization. […] The fraction unbound was calculated by dividing the drug concentration in the buffer side of the dialysis plate by the drug concentration in the plasma side.
On the technique in general: Equilibrium dialysis compares concentrations on both sides of a semipermeable membrane.

Data set [5] is described as follows: Maximum kinetic aqueous solubility. In kind it is physicochemical. The note with it: phosphate buffer, pH 7.4, aqueous buffer, kinetic from dmso stock. The method, then: Solubility assays were performed using the Millipore MultiScreen® HTS-PFC Filter Plates designed for the solubility assays (EMD Millipore, Billerica, MA). Assays were run in triplicate. The 96-well plates consist of two chambers separated by a filter. Liquid handling was performed using JANUS® Verispan and MTD workstations (Perkin Elmer, Waltham, MA). About 4 µL of the KIM-161 solution (10 mM in DMSO) was added to 196 µL of phosphate buffer (45 mM potassium phosphate, 45 mM sodium acetate, 45 mM ethanolamine, pH = 7.4) in the top chamber to give a final DMSO concentration of 2% and a theoretical drug concentration of 200 µM. The plates were gently shaken for 90 min and then subjected to vacuum. The insoluble drug was captured on the filter. 160 µL of the filtrate was transferred to 96-well Griener UV-Star® analysis plates (Sigma-Aldrich, St. Louis, MO) containing 40 µL of acetonitrile. The test compound concentration in the filtrate is measured by UV absorbance on a Spectromax® Plus microplate reader (Molecular Devices, Sunnyvale, CA) using SoftMax Pro Software v.5.4.5. The absorbances at five wavelengths (280, 300, 320, 340, and 360 nm) were summed to generate the UV signal. Standard curves were generated by adding 4 µL of five concentrations of the test compound in DMSO to 40 µL of acetonitrile in UV Star plates followed by 156 µL of the appropriate solubility medium. […]

Values after ≈ are worked out from the molar mass of the structure shown. Like-named read-outs stand apart in the source and are kept apart here.

T3 sequence (P10635 whole entry): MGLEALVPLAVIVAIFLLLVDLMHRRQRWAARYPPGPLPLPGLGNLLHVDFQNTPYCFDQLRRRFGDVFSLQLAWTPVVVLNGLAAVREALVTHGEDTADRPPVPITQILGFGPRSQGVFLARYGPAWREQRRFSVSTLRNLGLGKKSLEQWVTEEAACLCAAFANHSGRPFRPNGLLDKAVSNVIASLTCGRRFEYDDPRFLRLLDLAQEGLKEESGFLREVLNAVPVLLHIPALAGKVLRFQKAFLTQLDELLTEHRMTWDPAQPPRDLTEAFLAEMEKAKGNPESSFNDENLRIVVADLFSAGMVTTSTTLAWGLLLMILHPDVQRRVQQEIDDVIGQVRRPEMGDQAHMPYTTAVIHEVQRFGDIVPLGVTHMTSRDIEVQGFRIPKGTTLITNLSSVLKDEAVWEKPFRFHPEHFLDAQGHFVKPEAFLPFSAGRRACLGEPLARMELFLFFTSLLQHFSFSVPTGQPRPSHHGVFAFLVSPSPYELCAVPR
T1 sequence (P08684 whole entry): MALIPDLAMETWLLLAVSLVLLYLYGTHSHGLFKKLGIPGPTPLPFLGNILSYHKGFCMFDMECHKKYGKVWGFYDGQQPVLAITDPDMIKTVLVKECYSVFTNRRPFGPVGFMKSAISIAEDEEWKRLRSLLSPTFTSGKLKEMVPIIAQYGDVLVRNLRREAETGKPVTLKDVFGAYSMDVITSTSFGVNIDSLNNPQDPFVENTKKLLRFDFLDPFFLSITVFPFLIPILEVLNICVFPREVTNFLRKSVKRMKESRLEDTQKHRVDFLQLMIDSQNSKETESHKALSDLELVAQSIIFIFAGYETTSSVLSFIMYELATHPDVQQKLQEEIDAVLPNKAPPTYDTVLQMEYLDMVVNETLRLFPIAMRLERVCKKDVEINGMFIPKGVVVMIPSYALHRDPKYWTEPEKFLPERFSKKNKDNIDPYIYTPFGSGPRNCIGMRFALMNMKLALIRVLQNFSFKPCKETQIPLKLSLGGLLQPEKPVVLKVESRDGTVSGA
T2 sequence (P11712 whole entry): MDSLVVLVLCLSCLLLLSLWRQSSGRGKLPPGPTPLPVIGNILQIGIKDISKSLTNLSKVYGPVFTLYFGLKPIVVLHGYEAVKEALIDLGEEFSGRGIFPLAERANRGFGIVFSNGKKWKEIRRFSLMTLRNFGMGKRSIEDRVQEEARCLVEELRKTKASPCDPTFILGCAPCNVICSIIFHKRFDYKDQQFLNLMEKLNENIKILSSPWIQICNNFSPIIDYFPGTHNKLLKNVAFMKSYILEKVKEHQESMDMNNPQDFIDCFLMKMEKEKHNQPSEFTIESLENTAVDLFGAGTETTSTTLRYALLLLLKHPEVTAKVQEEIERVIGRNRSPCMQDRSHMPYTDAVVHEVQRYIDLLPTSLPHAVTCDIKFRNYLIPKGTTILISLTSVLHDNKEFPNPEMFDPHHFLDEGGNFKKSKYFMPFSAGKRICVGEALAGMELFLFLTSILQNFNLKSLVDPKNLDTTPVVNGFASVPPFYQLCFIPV

`COc1ccc(/C=C2\N=C(C)N(c3ccc(CC(=O)NCc4ccccc4)cc3)C2=O)cc1` [Compound 4c, (Z)-N-Benzyl-2-(4-(4-(4-methoxybenzylidene)-2-methyl-5-oxo-4,5-dihydro-1H-imidazol-1-yl)phenyl)acetamide]: the IC50 in data set [1], in data set [2] and in data set [3] was at least 10 µM each time. The tubulin polymerization inhibition result in the data set on bovine brain tubulin is “much weaker tubulin polymerization inhibition than KX2-391”. Further, in data set [4], the fraction unbound at 22 h, 10 µM came to 0.05. Moreover, the solubility at 90 min in data set [5] (Max solubility in 2% DMSO/PBS, kinetic, pH 7.4) was 19.9 µM (≈ 8.75 µg/mL); in data set [5] (read-out: solubility), around 20 µM (≈ 8.79 µg/mL).
